For series [1], the system named is CT26 cells. The experiment in a line: Biotin competition cellular uptake assay. Conditions: CT26, biotin 772 μM to 3.09 mM, 24 h. The series is classed as cell-based, mouse. The protocol:
Figure 3 (A) Time-course evaluation of cellular uptake for BBC-IP, BBC, and BPA in A549, B16, CT26, MDA-MB-231, and U87MG cells. Compounds were incubated for 2.5, 6, and 24 h in cells, and boron concentration was measured using inductively coupled plasma optical emission spectroscopy (ICP-OES) after ashing with conc. HNO3. Data are shown as the mean ± SEM from a single experiment conducted in triplicate. (B) Biotin concentration-dependent cell uptake study of BBC-IP, BBC and BPA in CT26 cells. Boron concentration was determined after incubation with compounds at various concentrations of biotin for 24 h. (C) Intracellular distribution of BBC-IP in CT26 cells. Cells were incubated with BBC-IP (ca. 25 μg [B]/mL) for 3 h, followed by […] using an anti-closo-dodecaborate antibody and lysosomal staining with Lysotracker. Red: lysosomes stained with LysoTracker Red DND-99; Green: BBC-IP localization; Blue: nuclei stained with DAPI. Scale bars: 25 μm. (D) Intracellular distribution of BPA in CT26 cell lines. Cells were incubated with BPA (ca. 25 μg [B]/mL) for 3 h, followed by fluorescent modification with a boron sensor,[24] nucleus staining with NucleoSeeing and lysosomal staining with a lysotracker. […] The cells were incubated for another 24 h, harvested using a cell scraper, and counted. […]

Series [2] deals with CT26 tumor-bearing mice. The series can be described thus: BNCT efficacy in CT26 tumor-bearing mice. The class given is in vivo, mouse. Conditions: i.v. 15 mg [10B]/kg, neutron irradiation 3 h later. On the procedure:
Figure 4 (A–D) Biodistribution of boron in the CT26-bearing mice at 3, 6, and 12 h post- intravenous injection of (A) BBC-IP, (B) BBC, (C) BBC-IP-HSA and (D) BPA at the dose of 15 mg [B]/kg. The data are shown as mean ± SEM (n = 3–4). (E, F) BNCT of the CT26 tumor-bearing mice intravenously injected with 15 mg [^10B]/kg of BBC-IP-HSA and BPA. (E) The tumor volume curves after thermal neutron irradiation (also see Figure S5, Supporting Information). (F) Mice body weight corresponding to the treatments in panel (E). Results are shown as the mean ± SEM (n = 5 for the groups with BBC-IP-HSA, BPA and no treatment, n = 4 for the groups with neutron only). The two-sided Student’s t-test was applied to determine statistical significance, defined as *p < 0.05, **p < 0.0001.
CT26 tumor-bearing mice were prepared by subcutaneously injecting a suspension of CT26 cells (8.0 × 10^5 cells/mouse) into the right thigh. […] The BNCT effects were assessed based on tumor volume changes. Tumor volume was calculated using the formula 0.5 × (A × B^2), where A and B represent the longest and shortest tumor diameters in millimeters, respectively. […]
(B) Body weight of the same mice treated in panel A. (C) The tumor volume curves of the individual mice after irradiation with thermal neutron. […] Significance was determined as: *p < 0.05, **p < 0.0001 using the two-sided […]

Series [3] can be described thus: MTT cytotoxicity assay. Conditions: human, A549 cells (human lung carcinoma).
Method: (§1) Human lung carcinoma (A549), mouse melanoma (B16), mouse colon carcinoma (CT26), human breast adenocarcinoma (MDA-MB-231), and human glioblastoma (U87MG) cell lines were maintained in Roswell Park Memorial Institute (RPMI)-1640 medium (Fujifilm Wako Pure Chemicals Co., Ltd., Japan) supplemented with 10% heat-inactivated fetal bovine serum (Thermo Fisher Scientific, Inc.) and 1% penicillin/streptomycin (final concentrations: 100 units/mL penicillin G and 10 μg/mL streptomycin; Thermo Fisher Scientific, Inc.). The cells were cultured at 37 °C in a humidified incubator with 5% CO2. For experiments, A549, B16, CT26, MDA-MB-231, and U87MG cells were seeded into 96-well plates at a density of 1000 cells per well. […] Following treatment, 0.5 mg/mL 3-(4,5-dimethylthiazol-2-yl)-2,5-diphenyltetrazolium bromide (MTT; Tokyo Chemical Industry Co., Ltd., Japan) was added to each well, and the plates were incubated for 4 h at 37 °C. After incubation, the medium was carefully removed, and the resulting MTT formazan product was dissolved in 100 μL of dimethyl sulfoxide (DMSO). The absorbance of the solution was measured at 590 nm using a microplate reader. The half-maximal inhibitory concentration (IC50) for each compound was calculated from semilogarithmic dose–response curves.
A short description of series [4]: MTT cytotoxicity assay. The settings on record: mouse, B16 cells (mouse melanoma). In general terms: Tetrazolium assays rely on reduction of a dye to a coloured formazan, in cell work by metabolically active cells.
Method: as §1
Series [5] in a line: MTT cytotoxicity assay. Conditions: mouse, CT26 cells (mouse colon carcinoma).
Method: as §1
Series [6] is described as follows: MTT cytotoxicity assay. The settings on record: human, MDA-MB-231 cells (human breast adenocarcinoma).
Method: as §1
Series [7] in a line: MTT cytotoxicity assay. The settings on record: human, U87MG cells (human glioblastoma).
Method: as §1
The conditions of series [8]: stated in Introduction without reference; cited from earlier work.
The test system of series [9] is A549 (human lung carcinoma) cells.
Method: as §1
For series [10], the system named is B16 (mouse melanoma) cells.
Method: as §1
The subject of series [11] is CT26 (mouse colon carcinoma) cells.
Method: as §1
The test system of series [12] is MDA-MB-231 (human breast adenocarcinoma) cells.
Method: as §1
Series [13] concerns U87MG (human glioblastoma) cells.
Method: as §1
For series [14], the target named is human serum albumin (HSA) (Homo sapiens, UniProt P02768). Also on record: method as in PMID 38770220. The settings on record: ELISA, Figure S1; stated as previously reported value; read-out: dissociation constant (Kd) to HSA; cited from earlier work.
Sequence of human serum albumin (HSA) (P02768 25-609): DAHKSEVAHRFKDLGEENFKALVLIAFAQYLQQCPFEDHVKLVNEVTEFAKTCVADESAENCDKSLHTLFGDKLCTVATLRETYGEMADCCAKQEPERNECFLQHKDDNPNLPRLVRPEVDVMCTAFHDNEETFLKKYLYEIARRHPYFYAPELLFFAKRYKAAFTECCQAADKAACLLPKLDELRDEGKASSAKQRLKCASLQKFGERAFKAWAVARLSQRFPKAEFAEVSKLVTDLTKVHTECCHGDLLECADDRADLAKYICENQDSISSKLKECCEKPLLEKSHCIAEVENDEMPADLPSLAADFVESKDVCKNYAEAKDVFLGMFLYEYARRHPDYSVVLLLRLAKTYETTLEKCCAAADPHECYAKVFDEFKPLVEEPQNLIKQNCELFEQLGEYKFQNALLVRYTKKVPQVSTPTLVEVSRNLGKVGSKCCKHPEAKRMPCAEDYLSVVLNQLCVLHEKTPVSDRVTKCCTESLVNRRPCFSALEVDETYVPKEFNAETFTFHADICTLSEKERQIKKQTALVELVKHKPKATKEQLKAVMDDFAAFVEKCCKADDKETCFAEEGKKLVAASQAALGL

Data on four compounds can be found in PMC11696430, “A Water-Soluble Small Molecule Boron Carrier Targeting Biotin Receptors for Neutron Capture Therapy” (ACS Omega, 2024).

As a reminder, the IC50 is the concentration that gives 50% inhibition. For orientation: Kd means a measure of binding affinity in units of concentration.

Consider `N[C@@H](Cc1ccc(B(O)O)cc1)C(=O)O` [BPA, 4-borono-L-phenylalanine, reference compound], for which the “decrease of accumulation under biotin competitive conditions (up to)” value in series [1] is recorded as “largely unaffected”. Also, the “antitumor efficacy / tumor growth compared between agents” value in series [2] (20-day monitoring) is “significantly higher antitumor efficacy than BBC-IP-HSA”. Besides, the “tumor suppression versus neutron-only group” value in [2] (20 days after irradiation) is reported as “significantly greater tumor suppression compared to the neutron-only group”. For the same compound, the 50% inhibitory concentration (IC50) at 72 h in series [3] is above 1000 µM; in series [4], 910 ± 130 µM; in series [5], above 1000 µM; in [6] it was above 1000 µM; in series [7] it was above 1000 µM.

Regarding `O=C(O)CCCC[C@@H]1SC[C@@H]2NC(=O)N[C@@H]21` [biotin], the water solubility entry in [8] is listed as “approximately 0.9 mM”.

“biotin-closo-dodecaborate conjugate [BBC]”: the “decrease of accumulation under biotin competitive conditions (up to)” value in [1] is around 20%. For the same compound, the half-inhibitory concentration (IC50) in series [9], in series [10], in [11], in series [12] and in series [13] was above 1000 µM in each case.

Regarding “pteroyl-closo-dodecaborate conjugated with a 4-(p-iodophenyl)butyric acid moiety [PBC-IP]”, the Kd in [14] was 11.7 ± 0.8 µM.
